Measured values reported in patent publication US9732105B2, “Targeted nitroxide agents” (University of Pittsburgh—of the Commonwealth System of …, priority 2011, dated 2017).
Like-named read-outs stand apart in the source and are kept apart here.

Tests used:
[1] = Ascorbic acid electron scavenging assay (disappearance of nitroxide ESR signal); format: biochemical; settings: 0.5 μM nitroxide, nitroxide ESR signal after 8.5 min; for Signal Decrease (%) (a): 35 μM ascorbate; for Signal Decrease (%) (b): 280 μM ascorbate; for Signal Decrease (%) (c): 1.12 mM ascorbate
Source text: In contrast to the DPPH assay, which mainly addresses the radical scavenging/reducing properties of nitroxides and hydroxylamines, the reaction of nitroxides with ascorbic acid benchmarks their ability to act as oxidizing agents in their conversion to hydroxylamines, which is important to their protective function as electron scavengers in the mitochondrial electron transport chain. The electron acceptor potentials of various nitroxides were thus benchmarked in the presence of low, medium, and high concentrations of the electron donor ascorbate (Table 3). ESR was used to detect the characteristic triplet of the nitroxide vs the doublet of ascorbate radicals (see supplementary information), and the disappearance of the former and appearance of the latter was measured over 8.5 min.

[2] = system: Ercc1^−/− MEFs; assay: Cell proliferation / rescue of oxidative-stress-induced senescence in Ercc1−/− MEFs; format: cell-based; settings: for EC50: read-out: Cell proliferation EC50
Source text: Cell survival in irradiation studies depends on complex biochemical pathways, possibly accounting for the complex correlation of nitroxide structure and radiation mitigation properties. Irradiation-induced cell death results from an accumulation of events that individually are not able to kill the cell, but which become lethal when added together. To develop a firmer basis for studying structural modifications, we assayed the ability to rescue cellular senescence induced by oxidative stress in Ercc1^−/− MEFs as a function of test agents (Table 5).
Ercc1^−/− MEFs completely lack a critical DNA repair factor, making these cells highly sensitive to genotoxic and oxidative stress. Growth of the Ercc1^−/− MEFs in 20% 02 results in cellular senescence as measured by senescence associated β-gal, γ-H2AX staining and p16 protein levels. The ability to rescue senescence, as measured by an increase in cell number, correlates with the inhibition of oxidative stress.

[3] = Stability of the free nitroxide on storage; format: physicochemical; settings: after removal of the Boc group; storage at rt
Source text: Preparation of 3-amino-ABNO (12) was envisioned from the known ketone 21, which was easily accessible in one step from acetonedicarboxylic acid and glutaraldehyde (Scheme 1). Conversion of 21 to oxime 22, followed by reduction to the amine with nickel boride and N-Boc protection provided carbamate 23 in high yield. Removal of the benzyl group by catalytic hydrogenolysis and oxidation of the free secondary amine in the presence of urea-hydrogen peroxide complex (UHP) furnished the Boc-protected nitroxide 24.
A mixture of Boc-protected amine 3-Boc-amino-ABNO (24, 200 mg, 0.783 mmol) in a 4.0 N solution of HCl in 1,4-dioxane (3.3 mL, 13.2 mmol) was stirred at 0° C. for 1 h and at rt for an additional 2 h. The suspension was then filtered and the solid rinsed with cold dry Et2O, to give 167 mg of an off-white powder. It was dissolved in a minimum of 2.5 N aq. NaOH, and extracted with warm CHCl3 (7×). The combined organic layers were dried (K2CO3), filtered and concentrated in vacuo to afford 110 mg (90%) of a red oil. Upon high vacuum and/or storage at rt for not more than 1 h, the product started to loose the red color characteristic for a nitroxide and became pale yellow. Thus, the title compound is unstable.

[4] = DPPH radical scavenging assay; format: biochemical; settings: for EC50: EtOH, 100 μM DPPH, 30 min at 37° C.
Source text: The free radical reduction abilities of the nitroxides and nitroxide-conjugates were benchmarked by the DPPH (2,2-diphenyl-1-picrylhydrazyl) assay.

[5] = system: 32Dcl3 murine hematopoietic cells; assay: Irradiation survival assay (colony formation) in 32Dcl3 cells; format: cell-based; settings: for Do, before irradiation / ñ, before irradiation: 10 μM nitroxide for 1 h before irradiation, 0 to 8 Gy; for Do, before irradiation / ñ, before irradiation / Do, after irradiation / ñ, after irradiation: colonies after 7 d; for Do, after irradiation / ñ, after irradiation: cells irradiated, then placed in media containing 10 μM nitroxide; for protection of cells from irradiation (in words): given 1 h before irradiation, shown by increased D0
Source text: Irradiation survival assays were used to test the ability of selected nitroxide-conjugates to protect against, or mitigate, irradiation-induced damage of 32Dcl3 murine hematopoietic cells.

**Q.** For CC(C)(C)OC(=O)NC1CC2CCCC(C1)N2O (stereo not shown) [Compound 24, 3-(tert-Butoxycarbonylamino)-9-azabicyclo[3.3.1]nonane N-oxyl], which “Signal Decrease (%) (a)” value [1] is on record?
**A.** 100%

**Q.** And the “Signal Decrease (%) (b)” value [1]?
**A.** 100%

**Q.** What about the EC50 ([2]; Ercc1−/− MEFs, 20% O2) of the same compound?
**A.** 40 nM

**Q.** For N[C@@H]1CC2CCC[C@@H](C1)N2[O] [Compound 12, 3-Amino-9-azabicyclo[3.3.1]nonane N-oxyl], which “stability (in words)” value [3] is on record?
**A.** unstable

**Q.** With CC(C)C[C@@H](/C=C/CC(=O)NC1CC(C)(C)N([O])C(C)(C)C1)NC(=O)OC(C)(C)C [JP4-039] as the compound, how does the “DPPH radical scavenging activity (in words)” value [4] read?
**A.** did not exhibit any significant activity

**Q.** And the “Signal Decrease (%) (a)” value [1]?
**A.** 29.7%

**Q.** What about the “Signal Decrease (%) (b)” value [1] of the same compound?
**A.** 81.4%

**Q.** And the “Do, before irradiation” value [5]?
**A.** 2.3 ± 0.3 Gy

**Q.** And the “ñ, before irradiation” value [5]?
**A.** 1.0 ± 0.1

**Q.** And the “Do, after irradiation” value [5]?
**A.** 1.2 ± 0.1 Gy

**Q.** And the “ñ, after irradiation” value [5]?
**A.** 3.5 ± 0.2

**Q.** What about the “protection of cells from irradiation (in words)” value [5] of the same compound?
**A.** able to protect cells from multiple killing events

**Q.** What about the EC50 [2] of the same compound?
**A.** 210 ± 15.2 nM

**Q.** With O=C1O[C@H]([C@@H](O)CO)C(O)=C1O [Ascorbic acid, reference compound] as the compound, how does the EC50 [4] read?
**A.** 28 ± 5 µM

**Q.** With COc1cc(/C=C/C(=O)CC(=O)/C=C/c2ccc(O)c(OC)c2)ccc1O [Curcumin, reference compound] as the compound, how does the EC50 ([2]; Ercc1−/− MEFs, 20% O2) read?
**A.** 1000 nM

**Q.** And the “rescue of senescence (in words)” value ([2]; used as negative control)?
**A.** only very weak effects

**Q.** For 5-amino-TMIO [Compound 8], which “Signal Decrease (%) (c)” value [1] is on record?
**A.** 40.3%

**Q.** And the EC50 ([2]; Ercc1−/− MEFs, 20% O2)?
**A.** < 1 nM

**Q.** With CC1(C)CC(O)CC(C)(C)N1[O] [Compound 9, 4-hydroxy-2,2,6,6-tetramethylpiperidine-N-oxyl, reference compound] as the compound, how does the “Signal Decrease (%) (a)” value [1] read?
**A.** 35.7%

**Q.** And the “Signal Decrease (%) (b)” value [1]?
**A.** 81%

**Q.** And the “Signal Decrease (%) (c)” value [1]?
**A.** 100%

**Q.** What about the EC50 [2] of the same compound?
**A.** 229 ± 23.9 nM

**Q.** What does the source list for CC(C)C[C@@H](/C=C/CC(=O)Nc1ccc2c(c1)C(C)(C)N([O])C2(C)C)NC(=O)OC(C)(C)C [Compound 20]?
**A.** DPPH radical scavenging activity (in words) [4]: slightly higher EC50 values than their corresponding nitroxide substructures; Signal Decrease (%) (b) [1]: 15.5%; Signal Decrease (%) (c) [1]: 77.4%; Do, before irradiation [5]: 1.8 ± 0.1 Gy; ñ, before irradiation [5]: 1.0 ± 0.1; Do, after irradiation [5]: 1.4 ± 0.1 Gy; ñ, after irradiation [5]: 2.4 ± 0.2; protection of cells from irradiation (in words) [5]: able to protect cells from multiple killing events; EC50 ([2]; Ercc1−/− MEFs, 20% O2): 17.6 ± 1.4 nM

**Q.** Which EC50 ([2]; Ercc1−/− MEFs, 20% O2) does the source give for CC(C)C[C@H](NC(=O)OC(C)(C)C)[C@@H]1C[C@H]1CC(=O)NC1CC(C)(C)N([O])C(C)(C)C1 [Compound 2] here?
**A.** 332 nM

**Q.** With CC(C)C[C@@H](/C=C/CC(=O)NC1CC(C)(C)N([O])C(C)(C)C1)NC(=O)OCc1ccccc1 [Compound 1] as the compound, how does the EC50 ([2]; Ercc1−/− MEFs, 20% O2) read?
**A.** 589 nM

**Q.** With CC(C)C[C@@H](/C=C/[C@H](Cc1ccccc1)C(=O)N1CCC[C@H]1C(=O)N[C@H](C(=O)N[C@@H](CCCNC(=O)OCc1ccccc1)C(=O)NC1CC(C)(C)N([O])C(C)(C)C1)C(C)C)NC(=O)OC(C)(C)C [XJB-5-131] as the compound, how does the “DPPH radical scavenging activity (in words)” value [4] read?
**A.** did not exhibit any significant activity

**Q.** And the “Signal Decrease (%) (a)” value [1]?
**A.** 76.7%

**Q.** And the “Signal Decrease (%) (b)” value [1]?
**A.** 92.4%

**Q.** And the EC50 ([2]; Ercc1−/− MEFs, 20% O2)?
**A.** 212 ± 5.1 nM

**Q.** With CC(C)C[C@@H](/C=C/CC(=O)NC1CC(C)(C)N([O])C(C)(C)C1)NP(=O)(c1ccccc1)c1ccccc1 [Compound 3] as the compound, how does the EC50 [2] read?
**A.** 70.4 nM

**Q.** Which EC50 ([2]; Ercc1−/− MEFs, 20% O2) does the source give for CC(C)C[C@H](NC(=O)OCc1ccccc1)[C@@H]1C[C@H]1CC(=O)NC1CC(C)(C)N([O])C(C)(C)C1 [Compound 4] here?
**A.** 231 nM

**Q.** For CC1(C)c2ccc(N)cc2C(C)(C)N1O [Compound 8-H], which EC50 [4] is on record?
**A.** 169 ± 7 µM

**Q.** With CC(C)C[C@H](/C=C/CC(=O)NC1CC(C)(C)N([O])C(C)(C)C1)NC(=O)OC(C)(C)C [Compound 5] as the compound, how does the EC50 [2] read?
**A.** 200 nM

**Q.** Which “DPPH radical scavenging activity (in words)” value [4] does the source give for CC(C)C[C@@H](/C=C/CC(=O)N[C@@H]1CC2CCC[C@@H](C1)N2[O])NC(=O)OC(C)(C)C [Compound 26, (S,E)-N-(9-Azabicyclo[3.3.1]nonan-9-oxo-3-yl)-5-(tert-butoxycarbonylamino)-7-methyloct-3-enamide] here?
**A.** slightly higher EC50 values than their corresponding nitroxide substructures

**Q.** What about the “Signal Decrease (%) (a)” value [1] of the same compound?
**A.** 100%

**Q.** What about the “Signal Decrease (%) (b)” value [1] of the same compound?
**A.** 100%

**Q.** What about the “Do, before irradiation” value [5] of the same compound?
**A.** 3.1 ± 0.6 Gy

**Q.** And the “ñ, before irradiation” value [5]?
**A.** 1.0 ± 0.1

**Q.** And the “Do, after irradiation” value [5]?
**A.** 1.3 ± 0.1 Gy

**Q.** And the “ñ, after irradiation” value [5]?
**A.** 2.7 ± 0.7

**Q.** What about the “protection of cells from irradiation (in words)” value [5] of the same compound?
**A.** able to protect cells from multiple killing events

**Q.** What about the EC50 ([2]; Ercc1−/− MEFs, 20% O2) of the same compound?
**A.** 11.8 ± 2.7 nM

**Q.** What does the source list for CC(C)C[C@@H](/C=C/C(F)(F)C(=O)NC1CC(C)(C)N([O])C(C)(C)C1)NC(=O)OC(C)(C)C [Compound 6]?
**A.** Signal Decrease (%) (a) [1]: 58.4%; Signal Decrease (%) (b) [1]: 94.1%; EC50 [2]: 7.6 ± 1.4 nM

**Q.** What does the source list for CC(C)C[C@@H](/C=C/CC(=O)NC1[C@@H]2CC3C[C@H]1C[C@](C)(C2)N3[O])NC(=O)OC(C)(C)C (stereo partly shown) [Compound 33]?
**A.** Do, before irradiation [5]: 2.6 ± 0.4 Gy; ñ, before irradiation [5]: 1.0 ± 0.1; Do, after irradiation [5]: 1.3 ± 0.1 Gy; ñ, after irradiation [5]: 2.5 ± 0.3; protection of cells from irradiation (in words) [5]: able to protect cells from multiple killing events; EC50 ([2]; Ercc1−/− MEFs, 20% O2): 5.3 ± 0.5 nM

**Q.** With 6-Boc-amino-1-Me-AZADO [Compound 32] as the compound, how does the “DPPH radical scavenging activity (in words)” value [4] read?
**A.** slightly higher EC50 values than their corresponding nitroxide substructures

**Q.** What about the “Signal Decrease (%) (a)” value [1] of the same compound?
**A.** 100%

**Q.** And the “Signal Decrease (%) (b)” value [1]?
**A.** 100%

**Q.** What about the EC50 ([2]; Ercc1−/− MEFs, 20% O2) of the same compound?
**A.** 62.2 nM

**Q.** With CC1(C)CCCC(C)(C)N1O [TEMPO-H, reference compound] as the compound, how does the EC50 [4] read?
**A.** 79 ± 2 µM
